Assay results reported in publication PMC9029538, “Dosing Colistimethate Every 8 h Results in Higher Plasma Concentrations of Active Colistin Than Every 12-Hourly Dosing without Increase in Nephrotoxicity: A Phase 1 Pharmacokinetics Trial in Healthy Adult Volunteers” (Antibiotics, 2022).

Assays:
[1] = Neurotoxicity (paresthesias, ataxia, SARA scores); assay type: in vivo, healthy adult volunteers; parameters: key to SARA score: Nose–finger—right / SARA score: Nose–finger—left: 0: no tremor; 0.5: tremor with an amplitude < 2 cm (unilateral); 1: tremor with an amplitude < 2 cm (bilateral); key to SARA score: Fast alternating hand movements—right / SARA score: Fast alternating hand movements—left / SARA score: Heel–shin slide—right / SARA score: Heel–shin slide—left / SARA score: Sitting / SARA score: Speech disturbance: 0: normal; key to SARA score: Finger chase—right / SARA score: Finger chase—left: 0: normal, no dysmetria; 0.5: dysmetria, under/overshooting target < 5 cm (unilateral); 1: dysmetria, under/overshooting target < 5 cm (bilateral); key to Cumulative SARA Score / SARA score: Gait / SARA score: Stance: normal, able to stand in tandem for >10s; able to stand with feet together without sway, but not in tandem for >10s; 2: able to stand with feet together for >10s, but only with sway; conditions: for Cumulative SARA Score / SARA score: Fast alternating hand movements—left / SARA score: Fast alternating hand movements—right / SARA score: Finger chase—left / SARA score: Finger chase—right / SARA score: Gait / SARA score: Heel–shin slide—left / SARA score: Heel–shin slide—right / SARA score: Nose–finger—left / SARA score: Nose–finger—right / SARA score: Sitting / SARA score: Speech disturbance / SARA score: Stance: highest score for any visit
Method: (§1) Safety assessments for TEAEs were conducted, including physical examinations (including neurological evaluations), […], vital signs, clinical laboratory tests, selected biomarkers for acute kidney injury (see section on kidney biomarkers), spirometry, and ECG measurements (see Supplementary Data S5 and S6 for clinical laboratory evaluations and schedule of events). If symptoms of ataxia were present, SARA (Scale for the Assessment and Rating of Ataxia, according to Schmitz-Hübsch et al.) assessment forms were completed to assess their severity.

[2] = Treatment-emergent adverse events, safety population; assay type: in vivo, healthy adult volunteers; conditions: for Ataxia / Blood creatinine increased / Dizziness / Glycosuria / Proteinuria / Red blood cells urine / Renal and urinary disorders / White blood cells urine positive / Blood calcium decreased / Headache / Investigations / Lymphocyte count decreased / Nervous system disorders / Number of Subjects with at Least One Adverse Event / Paresthesia / Prothrombin time prolonged / Respiratory, thoracic and mediastinal disorders / Cough: TEAE, subjects n (%)
Method: as §1

With colistimethate sodium [CMS] the ataxia reported ([1]; Cohort 1) was “no ataxia”, the “Cumulative SARA Score” value ([1]; subject 20012078) was 1 and the “SARA score: Fast alternating hand movements—left” value ([1]; subject 20012078) was 0. For the same substance, the “SARA score: Fast alternating hand movements—right” value ([1]; subject 20012078) was 0, the “SARA score: Finger chase—left” value ([1]; subject 20012078) was 0 and the “SARA score: Finger chase—right” value ([1]; subject 20012078) was 0. For the same substance, the “SARA score: Gait” value ([1]; subject 20012078) was 1, the “SARA score: Heel–shin slide—left” value ([1]; subject 20012078) was 0 and the “SARA score: Heel–shin slide—right” value ([1]; subject 20012078) was 0. For the same substance, the “SARA score: Nose–finger—left” value ([1]; subject 20012078) was 0, the “SARA score: Nose–finger—right” value ([1]; subject 20012078) was 0 and the “SARA score: Sitting” value ([1]; subject 20012078) was 0. For the same substance, the “SARA score: Speech disturbance” value ([1]; subject 20012078) was 0, the “SARA score: Stance” value ([1]; subject 20012078) was 0 and the “SARA score: Fast alternating hand movements—left” value ([1]; subject 20012079) was 0. For the same substance, the “SARA score: Fast alternating hand movements—right” value ([1]; subject 20012079) was 0, the “SARA score: Finger chase—left” value ([1]; subject 20012079) was 0.5 and the “SARA score: Finger chase—right” value ([1]; subject 20012079) was 0. For the same substance, the “SARA score: Gait” value ([1]; subject 20012079) was 2, the “SARA score: Heel–shin slide—left” value ([1]; subject 20012079) was 0 and the “SARA score: Heel–shin slide—right” value ([1]; subject 20012079) was 0. For the same substance, the “SARA score: Nose–finger—left” value ([1]; subject 20012079) was 0, the “SARA score: Nose–finger—right” value ([1]; subject 20012079) was 0 and the “SARA score: Sitting” value ([1]; subject 20012079) was 0. The “SARA score: Speech disturbance” value ([1]; subject 20012079) was 0, the “SARA score: Stance” value ([1]; subject 20012079) was 2 and the “SARA score: Fast alternating hand movements—left” value ([1]; subject 20012080) was 0. The “SARA score: Fast alternating hand movements—right” value ([1]; subject 20012080) was 0, the “SARA score: Finger chase—left” value ([1]; subject 20012080) was 0 and the “SARA score: Finger chase—right” value ([1]; subject 20012080) was 0. The “SARA score: Gait” value ([1]; subject 20012080) was 3, the “SARA score: Heel–shin slide—left” value ([1]; subject 20012080) was 0 and the “SARA score: Heel–shin slide—right” value ([1]; subject 20012080) was 0. For the same substance, the “SARA score: Nose–finger—left” value ([1]; subject 20012080) was 0.5, the “SARA score: Nose–finger—right” value ([1]; subject 20012080) was 0.5 and the “SARA score: Sitting” value ([1]; subject 20012080) was 0. The “SARA score: Speech disturbance” value ([1]; subject 20012080) was 0, the “SARA score: Stance” value ([1]; subject 20012080) was 2 and the “SARA score: Fast alternating hand movements—left” value ([1]; subject 20012081) was 0. The “SARA score: Fast alternating hand movements—right” value ([1]; subject 20012081) was 0, the “SARA score: Finger chase—left” value ([1]; subject 20012081) was 0 and the “SARA score: Finger chase—right” value ([1]; subject 20012081) was 0.5. For the same substance, the “SARA score: Gait” value ([1]; subject 20012081) was 1, the “SARA score: Heel–shin slide—left” value ([1]; subject 20012081) was 0 and the “SARA score: Heel–shin slide—right” value ([1]; subject 20012081) was 0. For the same substance, the “SARA score: Nose–finger—left” value ([1]; subject 20012081) was 0, the “SARA score: Nose–finger—right” value ([1]; subject 20012081) was 0 and the “SARA score: Sitting” value ([1]; subject 20012081) was 0. For the same substance, the “SARA score: Speech disturbance” value ([1]; subject 20012081) was 0, the “SARA score: Stance” value ([1]; subject 20012081) was 0 and the “Cumulative SARA Score” value ([1]; subject 20012082) was 2. For the same substance, the “SARA score: Fast alternating hand movements—left” value ([1]; subject 20012082) was 0, the “SARA score: Fast alternating hand movements—right” value ([1]; subject 20012082) was 0 and the “SARA score: Finger chase—left” value ([1]; subject 20012082) was 0. The “SARA score: Finger chase—right” value ([1]; subject 20012082) was 0, the “SARA score: Gait” value ([1]; subject 20012082) was 1 and the “SARA score: Heel–shin slide—left” value ([1]; subject 20012082) was 0. For the same substance, the “SARA score: Heel–shin slide—right” value ([1]; subject 20012082) was 0, the “SARA score: Nose–finger—left” value ([1]; subject 20012082) was 0 and the “SARA score: Nose–finger—right” value ([1]; subject 20012082) was 0. For the same substance, the “SARA score: Sitting” value ([1]; subject 20012082) was 0, the “SARA score: Speech disturbance” value ([1]; subject 20012082) was 0 and the “SARA score: Stance” value ([1]; subject 20012082) was 1. It also gave an Ataxia ([2]; Cohort 1 (N = 9)) of 0, a Blood creatinine increased ([2]; Cohort 1 (N = 9)) of 0 and a Dizziness ([2]; Cohort 1 (N = 9)) of 0. The Glycosuria ([2]; Cohort 1 (N = 9)) was 0, the Proteinuria ([2]; Cohort 1 (N = 9)) was 1 (11.1%) and the “Red blood cells urine” value ([2]; Cohort 1 (N = 9)) was 0. The “Renal and urinary disorders” value ([2]; Cohort 1 (N = 9)) was 1 (11.1%), the “White blood cells urine positive” value ([2]; Cohort 1 (N = 9)) was 0 and the Blood calcium decreased ([2]; Cohort 2 (N = 10)) was 0. The Blood creatinine increased ([2]; Cohort 2 (N = 10)) was 1 (10.0%), the Glycosuria ([2]; Cohort 2 (N = 10)) was 0 and the Headache ([2]; Cohort 2 (N = 10)) was 5 (50.0%). The Investigations ([2]; Cohort 2 (N = 10)) was 6 (60.0%), the Lymphocyte count decreased ([2]; Cohort 2 (N = 10)) was 1 (10.0%) and the Nervous system disorders ([2]; Cohort 2 (N = 10)) was 10 (100.0%). For the same substance, the “Number of Subjects with at Least One Adverse Event” value (“Number of Subjects” below) ([2]; Cohort 2 (N = 10)) was 10 (100.0%), the Paresthesia ([2]; Cohort 2 (N = 10)) was 10 (100.0%) and the Prothrombin time prolonged ([2]; Cohort 2 (N = 10)) was 3 (30.0%). For the same substance, the “Red blood cells urine” value ([2]; Cohort 2 (N = 10)) was 1 (10.0%), the “Respiratory, thoracic and mediastinal disorders” value ([2]; Cohort 2 (N = 10)) was 3 (30.0%) and the Ataxia ([2]; Cohort 3 (N = 12)) was 10 (83.3%). The Blood calcium decreased ([2]; Cohort 3 (N = 12)) was 4 (33.3%), the Cough ([2]; Cohort 3 (N = 12)) was 2 (16.7%) and the Dizziness ([2]; Cohort 3 (N = 12)) was 2 (16.7%). The Headache ([2]; Cohort 3 (N = 12)) was 4 (33.3%), the Investigations ([2]; Cohort 3 (N = 12)) was 11 (91.7%) and the Lymphocyte count decreased ([2]; Cohort 3 (N = 12)) was 1 (8.3%). For the same substance, the Nervous system disorders ([2]; Cohort 3 (N = 12)) was 11 (91.7%), the “Number of Subjects” value ([2]; Cohort 3 (N = 12)) was 11 (91.7%) and the Paresthesia ([2]; Cohort 3 (N = 12)) was 9 (75.0%). For the same substance, the Proteinuria ([2]; Cohort 3 (N = 12)) was 7 (58.3%), the Prothrombin time prolonged ([2]; Cohort 3 (N = 12)) was 1 (8.3%) and the “Renal and urinary disorders” value ([2]; Cohort 3 (N = 12)) was 7 (58.3%). The “Respiratory, thoracic and mediastinal disorders” value ([2]; Cohort 3 (N = 12)) was 2 (16.7%), the “White blood cells urine positive” value ([2]; Cohort 3 (N = 12)) was 7 (58.3%) and the Ataxia ([2]; Overall (N = 31)) was 17 (54.8%). For the same substance, the Blood calcium decreased ([2]; Overall (N = 31)) was 6 (19.4%), the Blood creatinine increased ([2]; Overall (N = 31)) was 5 (16.1%) and the Cough ([2]; Overall (N = 31)) was 6 (19.4%). The Dizziness ([2]; Overall (N = 31)) was 5 (16.1%), the Glycosuria ([2]; Overall (N = 31)) was 5 (16.1%) and the Headache ([2]; Overall (N = 31)) was 14 (45.2%). For the same substance, the Investigations ([2]; Overall (N = 31)) was 24 (77.4%), the Lymphocyte count decreased ([2]; Overall (N = 31)) was 4 (12.9%) and the Nervous system disorders ([2]; Overall (N = 31)) was 27 (87.1%). For the same substance, the “Number of Subjects” value ([2]; Overall (N = 31)) was 30 (96.8%), the Paresthesia ([2]; Overall (N = 31)) was 24 (77.4%) and the Proteinuria ([2]; Overall (N = 31)) was 10 (32.3%). For the same substance, the Prothrombin time prolonged ([2]; Overall (N = 31)) was 7 (22.6%), the “Red blood cells urine” value ([2]; Overall (N = 31)) was 4 (12.9%) and the “Renal and urinary disorders” value ([2]; Overall (N = 31)) was 10 (32.3%). The “Respiratory, thoracic and mediastinal disorders” value ([2]; Overall (N = 31)) was 8 (25.8%), the “White blood cells urine positive” value ([2]; Overall (N = 31)) was 9 (29.0%) and the “AEs that occurred during Period 1” value ([2]; Period 1 (IV), of all AEs) was 138/287. The “total AEs reported” value ([2]; overall) was 287, the “serious TEAE” value ([2]; resulted in discontinuation of the subject) was “one serious TEAE of acute kidney injury” and the deaths ([2]; whole study) was “no deaths”.
